Measured values as given in PubChem BioAssay (NCI).
Where “and” joins values, the source holds several entries; their conditions need not be identical. Equal values may be shown once.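 A five-concentration, 48-hour dose response in 96-well plates underlies each endpoint, interpolated linearly between surrounding concentrations. The concentration for 50% growth inhibition is given as GI50. Definition used: TGI = concentration required for complete inhibition of growth.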

What was measured:
Experiment in all cases: inhibition of tumour cell growth, NCI panel, 48 h
MALME-3M melanoma = tested on: MALME-3M melanoma
SNB-75 CNS = tested on: SNB-75 CNS
A549 NSCLC = tested on: A549 NSCLC
RXF 393 renal = tested on: RXF 393 renal
OVCAR-8 ovarian = tested on: OVCAR-8 ovarian
HS 578T breast = tested on: HS 578T breast
SR leukemia = tested on: SR leukemia
SK-OV-3 ovarian = tested on: SK-OV-3 ovarian
UACC-257 melanoma = tested on: UACC-257 melanoma
786-0 renal = tested on: 786-0 renal

SMILES | GI50 (MALME-3M melanoma) [µM] | TGI (MALME-3M melanoma) | GI50 (SNB-75 CNS) [µM] | TGI (SNB-75 CNS) | GI50 (A549 NSCLC) [µM] | TGI (A549 NSCLC) | GI50 (RXF 393 renal) | TGI (RXF 393 renal) | GI50 (OVCAR-8 ovarian) [µM] | TGI (OVCAR-8 ovarian) | GI50 (HS 578T breast) | TGI (HS 578T breast) [µM] | GI50 (SR leukemia) | TGI (SR leukemia) | GI50 (SK-OV-3 ovarian) [µM] | TGI (SK-OV-3 ovarian) | GI50 (UACC-257 melanoma) | TGI (UACC-257 melanoma) | GI50 (786-0 renal) | TGI (786-0 renal) [µM]
NC(=O)c1cc(-c2ccc(F)cc2)cc(-c2ccncc2)c1N | > 25 | > 25 µM | 4.99 | > 25 µM | > 25 | > 25 µM | > 18.6 µM | > 25 µM | > 25 | > 25 µM | 5.66 µM | > 23.4 | > 25 µM | > 25 µM | > 25 | > 25 µM | > 25 µM | > 25 µM | > 25 µM | > 25
N#CSCC1CC(O)(c2ccccc2)CC(c2ccc(F)cc2)O1 (stereo not given) | 2.14 | 6.44 µM | 1.44 | 3.24 µM | 3.86 | 18.5 µM | 1.72 µM | 3.47 µM | 2.02 | 4.37 µM | 1.96 µM | 4.6 | 0.572 µM | 3.19 µM | 4.67 | 15.7 µM | 3.29 µM | 11.9 µM | 1.61 µM | 3.27
Cc1c(COc2cc(OCc3cccc(C#N)c3)c(CN3C[C@H](O)C[C@@H]3C(=O)O)cc2Cl)cccc1-c1ccc2c(c1)OCCO2 | 14.7 | 28.9 µM | 13.6 | 27 µM | 22.1 | 55.3 µM | 16 µM | 29.9 µM | 27.1 | > 100 µM | 21 µM | 53.1 | 2.65 µM | 8.95 µM | 19.4 | 37.7 µM | 20.6 µM | 41.8 µM | 3.87 µM | 15.3
CCCCCCCCCCCC1CCCC(C)N1 (stereo not given) | 8.03 | 22.7 µM and 166 µM | 9.82 | 24 µM and 151 µM | 13.4 | 32.7 µM and 164 µM | 15.2 µM | 35.6 µM and 108 µM | 13.8 | 40.1 µM and 167 µM | 8.6 µM | 26.2 | 2.63 µM | > 100 µM | 14.5 | 28.5 µM and 158 µM | 10.3 µM | 24.4 µM and 119 µM | 13.7 µM | 42.9
CC1OC(OC2C(O[C@H]3CC[C@@]4(C)C(=CC[C@H]5[C@@H]6C[C@@H]7O[C@]8(CC[C@H](C)CN8)[C@@H](C)[C@@H]7[C@@]6(C)CC[C@@H]54)C3)OC(CO)C(O)C2OC2OC(CO)C(O)C(O)C2O)C(O)C(O)C1O (stereo not given in full) |  | 34.5 µM |  | 29.2 µM |  | 34.5 µM |  | 31.5 µM |  | 31.1 µM |  | 31.2 |  | 61.6 µM |  | 30.5 µM |  | 33 µM |  | 51
O=C(NCc1ccc(Cn2c(=O)sn(-c3ccccc3)c2=O)cc1)OCc1ccc2c(Br)cc(Br)c(O)c2n1 | 1.38 | 2.78 µM | 0.606 | 1.97 µM | 1.51 | 3.78 µM | 0.546 µM | 1.83 µM | 0.762 | 2.44 µM | 1.62 µM | 4.9 | 0.376 µM | > 100 µM | 3.61 | 14 µM | 1.26 µM | 2.74 µM | 0.495 µM | 1.08
CCN(C(=O)c1cc(F)ccc1Oc1cncnc1N1CC2(CCN(CC3CCC(NS(=O)(=O)CC)CC3)CC2)C1)C(C)C (stereo not given) | > 100 | > 100 µM | > 100 | > 100 µM | > 100 | > 100 µM | > 100 µM | > 100 µM | > 100 | > 100 µM | > 100 µM | > 100 | > 100 µM | > 100 µM | > 100 | > 100 µM | > 100 µM | > 100 µM | > 100 µM | > 100
Cc1occc1C(=S)Nc1ccc(Cl)c(C(=O)OC(C)C2CC2)c1 (stereo not given) |  | 36.4 µM |  | 68.9 µM |  | > 100 µM |  | 39.4 µM |  | 43.2 µM |  | 69.1 |  | 68.2 µM |  | 50.5 µM |  | > 100 µM |  | 52.5
C[C@@H](CO)[C@@H]1CCC=C2CC[C@]3(C)[C@H](CC[C@@H]4[C@@]5(C)CCCNC(C)(C)[C@@H]5CC[C@]43C)[C@H]21 | 1.71 | 3.36 µM | 2.19 | 17.2 µM | 2.24 | 5.04 µM | 2.39 µM | 6.25 µM | 2.02 | 4.1 µM | 2.08 µM | 5.19 | 5.44 µM | > 100 µM | 12.8 | 30.8 µM | 2.59 µM | 7.08 µM | 1.93 µM | 3.82
c1cc(CNCCN2CCNCC2)ccn1 |  | > 100 µM |  | > 100 µM |  | > 100 µM |  | > 100 µM |  | > 100 µM |  | > 100 |  | > 100 µM |  | > 100 µM |  | > 100 µM |  | > 100
Nc1nc(-c2ccc(F)cc2)c(-c2ccc3ncccc3n2)s1 | 19.6 | > 25 µM | 5.04 | > 25 µM | 13.7 | > 25 µM | 12.3 µM | > 25 µM | 15.6 | > 25 µM | 9.61 µM | > 25 | > 25 µM | > 25 µM | 6.82 | > 25 µM | > 25 µM | > 25 µM | 16.9 µM | > 25
COc1ccc2c(c1)n([O-])c1ccccc1[n+]2=O |  | > 100 µM and 69.9 µM |  | > 100 µM |  | > 100 µM and 44.7 µM | 25 µM and 10.3 µM | 81.2 µM and 34.8 µM |  | > 100 µM and 55.7 µM | > 100 µM and 30.4 µM | > 100 | 7.56 µM and 2.42 µM | 59.6 µM and 12.2 µM |  | 94.8 µM | 46.5 µM and 17.9 µM | > 100 µM and 40.2 µM | 43 µM and 21.4 µM | > 100
CC[C@@H](C(=O)[C@@H](C)[C@@H](O)[C@H](C)[C@@H]1O[C@@H]([C@@H](CC)C(=O)N(CC)CC)CC[C@@H]1C)C1O[C@]2(C=CC(=O)[C@]3(CC[C@@](C)([C@H]4CC[C@](O)(CC)[C@H](C)O4)O3)O2)[C@H](C)C[C@@H]1C (stereo not given in full) | 1.93 | 4.9 µM | 1.9 | 17.4 µM | 3.21 | > 100 µM | 1.66 µM | 4.06 µM | 3.55 | > 100 µM | 2.68 µM | 16.1 | 2.39 µM | 6.63 µM | 3.87 | > 100 µM | 3.17 µM | 19.9 µM | 3.22 µM | 15.9
COC(=O)C1=C(C)NC(C)=C(C(=O)OC)C1/C=C(Cl)/C=C/c1ccccc1 | 19.8 | 46 µM | 20 | 54.8 µM | 28.8 | > 100 µM | 18.4 µM | 46.6 µM | 36 | > 100 µM | 38.4 µM | > 100 | 19.5 µM | 38.5 µM | 28.2 | > 100 µM | 16.8 µM | 41 µM | 25.9 µM | 70.5
O=C(O)c1cccc(N=Nc2c(S(=O)(=O)O)ccc3c2C(=O)c2ccccc2C3=O)c1O |  | > 100 µM |  | > 100 µM |  | > 100 µM |  | > 100 µM |  | > 100 µM |  | > 100 |  | > 100 µM |  | > 100 µM |  | > 100 µM |  | > 100
O=C(/C=C/c1cc([N+](=O)[O-])ccc1Cl)c1ccccc1 | 19.4 | 44.7 µM | 21.7 | 99.6 µM | 22 | 92.9 µM | 14.7 µM | 28.1 µM | 12.2 | 33.5 µM | 21.2 µM | 61.7 | 3.54 µM | > 100 µM | 39 | > 100 µM | 16.2 µM | 33.6 µM | 15.2 µM | 32
COc1ccc(Nc2c3ccccc3nc3ccccc23)cc1 | 1.83 | 9.05 µM | 2.85 | 17.6 µM | 0.809 | 11 µM | 2.04 µM | 12.1 µM | 1.89 | 16.7 µM | 5.26 µM | 27.5 | 0.482 µM | 4.01 µM | 3.66 | 16.2 µM | 2.71 µM | 14.4 µM | 3.85 µM | 16.7
